In ChEMBL document CHEMBL5233262, “Anti-inflammatory activity of naturally occuring diarylheptanoids - A review” (Bioorg Med Chem, 2021):
Converted amounts (≈) assume the structure as drawn. Blank lines part the entries; values can stand above or below the molecule they belong to. Residues, ends and D or L forms follow the SMILES beside them. *: point of attachment. Cbz = O=C(OCc1ccccc1)*

Key:
[1] = Antioxidant activity assessed as […] radical scavenging activity at 50 uM; format: functional
[2] = tested on: Rattus norvegicus; experiment: Antiinflammatory activity in rat model of carrageenan-induced paw edema assessed as reduction in paw thickness at 10 mg/kg,ip and measured after 4 hrs; format: functional; set-up: scale not given: the % may be the effect or the level left
[3] = tested on: RAW264.7; experiment: Antiinflammatory activity in mouse RAW264.7 cells assessed as inhibition of IFN-gamma and LPS-induced NO production incubated for 24 hrs by Griess assay; format: functional, cell-based; conditions: RAW264.7, 24 h
[4] = tested on: RAW264.7; experiment: Antiinflammatory activity against mouse RAW264.7 cells assessed as inhibition of IFN-gamma and LPS-induced COX2 production preincubated for 2 hrs followed by IFN-gamma and LPS stimulation and measured after 16 hrs by spectrophotometric analysis; format: functional, cell-based
[5] = tested on: J774.1; experiment: Antiinflammatory activity in mouse J774.1 cells assessed as inhibition of LPS-induced NO production incubated for 48 hrs by Griess reagent based analysis; format: functional, cell-based
[6] = tested on: J774.1; experiment: Antiinflammatory activity in mouse J774.1 cells assessed as inhibition of LPS-induced NO production at 100 microg/ml; format: functional
[7] = tested on: J774.1; experiment: Cytotoxicity in mouse J774.1 cells assessed as reduction in cell viability at 100 microg/ml; format: toxicity, cell-based; conditions: at 100 µg/mL
[8] = tested on: RAW264.7; experiment: Antiinflammatory activity in mouse RAW264.7 cells assessed as inhibition of LPS-induced NO production incubated for 18 hrs by Griess method; format: functional, cell-based; conditions: RAW264.7, 18 h
[9] = tested on: RAW264.7; experiment: Antiinflammatory activity in mouse RAW264.7 cells assessed as inhibition of LPS-induced NO production preincubated for 0.5 hrs followed by LPS stimulation and measured after 24 hrs by Griess reagent based analysis; format: functional, cell-based
[10] = Antioxidant activity assessed as ABTS radical scavenging activity measured after 6 mins; format: functional
[11] = tested on: RAW264.7; experiment: Antiinflammatory activity in mouse RAW264.7 cells assessed as inhibition of LPS-induced NO production preincubated for 1 hrs followed by LPS stimulation and measured after 24 hrs by Griess reagent based spectrophotometrical method; format: functional, cell-based
[12] = tested on: Mus musculus; experiment: Antiinflammatory activity in ICR mouse model of TPA-induced ear edema assessed as inhibition of ear inflammation at 1 mg,TOP for 30 mins followed by TPA addition and measured after 6 hrs; format: functional; conditions: time 390 min, 6.5 h
[13] = tested on: RAW264.7; experiment: Antiinflammatory activity in mouse RAW264.7 cells assessed as inhibition of LPS-induced NO production preincubated for 1 hrs followed by LPS stimulation and measured after 24 hrs by Griess method; format: functional, cell-based
[14] = Antiinflammatory activity in mouse N11 cells assessed as inhibition of LPS-induced NO production preincubated for 1 hrs followed by LPS stimulation and measured after 24 hrs by Griess method; format: functional, cell-based
[15] = tested on: RAW264.7; experiment: Antiinflammatory activity in mouse RAW264.7 cells assessed as inhibition of LPS-induced TNFalpha level preincubated for 1 hrs followed by LPS stimulation and measured after 24 hrs by ELISA; format: functional, cell-based
[16] = Antiinflammatory activity in mouse N11 cells assessed as inhibition of LPS-induced TNFalpha level preincubated for 1 hrs followed by LPS stimulation and measured after 24 hrs by ELISA; format: functional, cell-based
[17] = tested on: RAW264.7; experiment: Antiinflammatory activity in mouse RAW264.7 cells assessed as inhibition of LPS-induced NO production for 24 hrs by Griess assay; format: functional, cell-based; conditions: RAW264.7, 24 h
[18] = tested on: RAW264.7; experiment: Antiinflammatory activity in mouse RAW264.7 cells assessed as inhibition of LPS-induced NO production at 30 uM preincubated for 0.5 hrs followed by LPS stimulation and measured after 24 hrs by Griess reagent based analysis; format: functional; conditions: time 24.5 hrs

SMILES: COc1c2cc(c(O)c1OC)CCCC[C@H](O)CCc1ccc(O)c-2c1
Activity [1]: 41%
Activity [2]: 51.5%

SMILES: OC[C@@]1(O)CO[C@@H](OC[C@H]2O[C@@H](O[C@H](CCCCc3ccc(O)c(O)c3)CCc3ccc(O)c(O)c3)[C@H](O)[C@@H](O)[C@@H]2O)[C@@H]1O
IC50 [3]: 49.4 µg/mL (≈ 78.8 µM)
IC50 [4]: 34.2 µg/mL (≈ 54.6 µM)

SMILES: COc1cc(O)c([C@@H](/C=C/C[C@@H](O)CCc2ccc(O)cc2)c2ccc(O)cc2)c2oc(-c3ccc(O)cc3)cc(=O)c12 (stereo in doubt; 112)
IC50 ([5]; Mus musculus, J774.1, 48 h): 104 µM
inhibition at 100 µg/mL [6]: 90%
Activity [7]: 85%

SMILES: Oc1ccc(CC[C@@H](O)CCCCc2ccc(O)c(O)c2)cc1
IC50 [8]: 13.8 µM

SMILES: O=C(CCc1ccc(O)c(O)c1)C[C@H](CCc1ccc(O)c(O)c1)O[C@H]1OC[C@H](O)[C@@H](O)[C@@H]1OC(=O)c1ccccc1
IC50 [9]: 15.4 µM

SMILES: CCC(C)C(=O)O[C@@H]1[C@@H](O[C@@H](CCc2ccc(O)c(O)c2)CC(=O)CCc2ccc(O)c(O)c2)OC[C@H](O)[C@H]1O (stereo partly specified)
IC50 [9]: 30 µM

SMILES: O=C1CCc2ccc(cc2)Oc2cc(ccc2O)CC[C@@H](O[C@@H]2O[C@H](CO)[C@@H](O)[C@H](O)[C@H]2O)C1
ID50 [12]: 0.49 mg

SMILES: COc1cc(O)c([C@H](/C=C/C[C@@H](O)CCc2ccc(O)cc2)c2ccc(O)cc2)c2oc(-c3ccc(O)cc3)cc(=O)c12 (stereo in doubt; 110)
IC50 ([5]; Mus musculus, J774.1, 48 h): 84 µM
inhibition at 100 µg/mL [6]: 90%
Activity [7]: 85%

SMILES: COc1cc([C@@H]2O[C@H]([C@@H](O)Cc3ccc(O)cc3)C[C@@H](O)[C@@H]2O)ccc1O
IC50 [17]: > 100 µM

SMILES: COc1cc(O)c([C@H](/C=C/C[C@@H](O)CCc2ccc(O)cc2)c2ccc(O)cc2)c2oc(-c3ccc(O)cc3)cc(=O)c12 (stereo in doubt; 111)
IC50 ([5]; j774.1): 95 µM

SMILES: Oc1ccc2cc1Oc1ccc(cc1)CC[C@H](O)CCCC2 [ACEROGENIN A]
ID50 [12]: 0.32 mg

SMILES: COc1c2cc(c(O[C@@H]3O[C@H](CO)[C@@H](O)[C@H](O)[C@H]3O)c1O)CCCCC(=O)CCc1ccc(OC(C)=O)c-2c1
Activity [1]: 41%
Activity [2]: 46.3%

SMILES: OC[C@H]1O[C@@H](O[C@H](CCCCc2ccc(O)c(O)c2)CCc2ccc(O)cc2)[C@H](O)[C@@H](O)[C@@H]1O
inhibition at 30 µM [18]: 11%

SMILES: COc1cc(/C=C/C(=O)CC(=O)CCc2ccc(O)c(OC)c2)ccc1O
IC50 ([5]; Mus musculus, J774.1, 48 h): 181 µM

SMILES: OC[C@H]1O[C@@H](O[C@H](CCCCc2ccc(O)cc2)CCc2ccc(O)c(O)c2)[C@H](O)[C@@H](O)[C@@H]1O
inhibition at 30 µM [18]: 37%

SMILES: COc1c2cc(c(O[C@@H]3O[C@H](CO)[C@@H](O)[C@H](O)[C@H]3O)c1OC)CCCCC(=O)CCc1ccc(O)c-2c1
Activity [1]: 41%
Activity [2]: 46.9%

SMILES: O=C(CCCCc1ccc(O)cc1)CCc1ccc(O)c(O)c1
IC50 [8]: 13.2 µM

More lines, main results first:

IC50 [8]: 0.1 µM
SMILES: CC(C)C[C@@H](C=O)NC(=O)[C@H](CC(C)C)NC(=O)[C@H](CC(C)C)NC(=O)OCc1ccccc1 [MG-132] (Cbz-Leu-Leu-Leu-aldehyde)

IC50 [10]: 12 µM
IC50 [11]: 13 µM
SMILES: COc1cc2cc(c1O)-c1cc(ccc1O)CCC(=O)CCCC2 [MYRICANANIN C]

IC50 [13]: 47 µM
IC50 [14]: 44.2 µM
IC50 [15]: 9.9 µM
IC50 [16]: 29.6 µM
SMILES: COc1ccc(C/C=C/CCCCc2cccc(O)c2)cc1

IC50 [17]: 27 µM
SMILES: Oc1ccc(CC[C@H](O)C[C@H](O)CCc2ccc(O)c(O)c2)cc1

IC50 [10]: 22.3 µM
IC50 [11]: 7.5 µM
SMILES: COc1c2cc(c(O)c1OC)CCCC[C@@H](O)CCc1ccc(O)c-2c1

IC50 [9]: 22 µM
SMILES: O=C(CCc1ccc(O)c(O)c1)C[C@H](CCc1ccc(O)c(O)c1)O[C@H]1OC[C@H](O)[C@@H](O)[C@@H]1OC(=O)/C=C/c1ccc(O)cc1

IC50 [13]: 47 µM
IC50 [14]: 63.2 µM
IC50 [15]: 29.6 µM
IC50 [16]: 29.6 µM
SMILES: COc1ccc(C/C=C/CCCCc2ccc(O)cc2)cc1

IC50 [10]: 19.6 µM
IC50 [11]: 1 µM
SMILES: COc1c2cc(c(O)c1OC)CCCCC(=O)CCc1ccc(O)c-2c1 [MYRICANONE]
Activity [1]: 41%
Activity [2]: 49.6%

IC50 ([5]; Mus musculus, J774.1, 48 h): 36 µM
SMILES: COc1cc(O)c([C@H](/C=C/C[C@@H](O)CCc2ccc(O)cc2)c2ccc(O)cc2)c(O)c1C(=O)[C@@H]1[C@H](/C=C/c2ccc(O)cc2)C[C@H](CCc2ccc(O)cc2)O[C@H]1c1ccc(O)cc1

IC50 [17]: 79.9 µM
SMILES: OC[C@H]1O[C@@H](O[C@@H]2C[C@@H](CCc3ccc(O)cc3)O[C@@H](c3ccc(O)c(O)c3)C2)[C@H](O)[C@@H](O)[C@@H]1O
